Patent publication US20090324691A1, “METHODS AND OPHTHALMIC DEVICES USED IN THE TREATMENT OF OCULAR ALLERGIES” (priority 2008, published 2009)
Structures can show the parent of a compound that is named as a salt.

Legend:
[1] = Uptake of ketotifen fumarate to an ophthalmic device over time (FIG. 1); format: physicochemical; conditions: 3.0 mL of 43 ug/mL ketotifen fumarate packing solution per lens
Method: FIG. 1 illustrates the uptake of ketotifen fumarate to an ophthalmic device over time.
Three lots of 1-Day Acuvue® Brand Contact Lenses (etafilcon A) were cured and hydrated with deionized water. These lenses were inserted into glass vials containing 3.0 mL of a 43 ug/mL ketotifen fumarate packing solution per lens (packing solution formulation: borate buffered saline containing 0.83% sodium chloride, 0.9% boric acid, 100 ug/mL of dicalcium DTPA, and 0.1% sodium borate decahydrate ). The soaked and harvested at 5, 15, 30, 90 and 180 minutes and extracted and assayed as in Example 1 to determine the amount of ketotifen per treated lens. This graph illustrates that a minimum effective amount of in an etafilcon A contact lens is attained within 15 minutes of treatment.

[2] = concentrations higher than 0.025% (0.25 mg/mL), topical solution; cited from earlier work

CN1CCC(=C2c3ccccc3CC(=O)c3sccc32)CC1 [ketotifen fumarate]
time of treatment to attain a minimum effective amount in an etafilcon A contact lens [1]: ≤ 15 min
ocular tolerability of higher concentrations [2]: sting and burn upon initial administration to the eye
